Experiments:
[1] = system: BDF1 female mice treated with cisplatin; test: Effect of pretreatment on BUN/creatinine, AST/ALT, WBC/platelet in blood of cisplatin-treated mice (Example 2); assay type: in vivo; conditions: blood day 6; for platelet count, effect of pretreatment: vs Gp 1 (Control)
Method: Gp 1: medium (saline). Gp 2: saline followed by cisplatin (2.5 mg/kg) 30 min later. Gp 3: UTL-5g (15 mg/kg) followed by cisplatin (2.5 mg/kg) 30 min later. Gp 4: UTL-5g (30 mg/kg) followed by cisplatin (2.5 mg/kg) 30 min later. Gp 5: UTL-5g (60 mg/kg) followed by cisplatin (2.5 mg/kg) 30 min later. Gp 6: amifostine (200 mg/kg) followed by cisplatin (2.5 mg/kg) 30 min later; Gp 7: saline followed by cisplatin (5 mg/kg) 30 min later. Gp 1-Gp 6 were daily ×5, but Gp 7 was by single dose on day 0 only. StDev is shown for each Gp (n=5 for each group except for Gp 7, n=3). ** two-tailed p<0.005 vs medium control by Student's t-test.
(§1) Gp 1: medium (saline). Gp 2: saline followed by cisplatin (2.5 mg/kg) 30 min later. Gp 3: UTL-5g (15 mg/kg) followed by cisplatin 30 min later. Gp 4: UTL-5g (30 mg/kg) followed by cisplatin (2.5 mg/kg) 30 min later. Gp 5: UTL-5g (60 mg/kg) followed by cisplatin (2.5 mg/kg) 30 min later. Gp 6: amifostine (200 mg/kg) followed by cisplatin (2.5 mg/kg) 30 min later. Gp 7: saline followed by cisplatin (5 mg/kg) 30 min later. Gp 1-Gp 6 were daily ×5, but Gp 7 was by single dose on day 0 only. StDev is shown for each Gp (n=5 for each group except n=4 for Gp 7). * P<0.05, ** p<0.005 vs. medium control (Gp 1) by Student's t-test (two-tailed).
as §1, with “p<0.005, *** p<0.0005” for “p<0.005”, “control” for “control (Gp 1)”
BDF1 female mice (average wt ˜20 g/mouse) were randomly divided into the following groups (5 mice per group) and each treated daily ×5 (starting from day 0) by ip injection (0.25 mL/mouse), except in Gp 7, each was treated by a single dose ip injection (0.25 mL/mouse) on day 0 only, as described below • Gp 1: medium (saline) followed by medium (saline) 30 min later • Gp 2: medium (saline) followed by cisplatin (2.5 mg/kg) 30 min later • Gp 3: UTL-5g (15 mg/kg) followed by cisplatin (2.5 mg/kg) 30 min later • Gp 4: UTL-5g (30 mg/kg) followed by cisplatin (2.5 mg/kg) 30 min later • Gp 5: UTL-5g (60 mg/kg) followed by cisplatin (2.5 mg/kg) 30 min later • Gp 6: amifostine (200 mg/kg) followed by cisplatin (2.5 mg/kg) 30 min later • Gp 7: medium (saline) followed by cisplatin (5 mg/kg) 30 min later (single dose on Day 0 only)
Preparation of the test samples are described below: • Cisplatin: Cisplatin was dissolved in saline (0.2 and 0.4 mg/mL in saline) for 2.5 and 5 mg/kg ip injection. • UTL-5g: The stock solution of UTL-5g was first dissolved in DMSO and equal volume of Cremophor/propylene glycol (60/40 v/v) was added to make a stock solution. Immediately before the injection, saline was added to this temporary solution at a 90:10 v/v ratio and mixed thoroughly. Three concentrations for ip injection were prepared (1.25, 2.5, and 5 mg/mL) so that the doses are equivalent to 15, 30, and 60 mg/kg with a 0.25 mL injection. • Amifostine: The stock solution of amifostine was dissolved in saline to the desired concentration (16 mg/mL) for the 200 mg/kg injection.
Cardiac puncture was used to obtain blood from each mouse on day 6. To assess liver/kidney protection by UTL-5g, all blood samples were analyzed for BUN, creatinine, AST, and ALT by the chemistry lab at Henry Ford Health System. Unopette® (Becton Dickinson, Franklin Lakes, N.J.) diluting systems and a hemocytometer were used to assess the effect of UTL-5g on WBC and platelet counts in blood.

[2] = within 1 h, cited from earlier work
tumor cells = conditions: animal data; cited from earlier work
TNF-α = TNF-α levels in plasma of cisplatin-treated mice (commercial assay kit, eBioscience); assay type: in vivo; conditions: cisplatin 2.5 mg/kg ip daily ×5; pooled plasma day 6
Method: FIG. 5. Effect of UTL-5g on TNF-α levels in plasma for mice treated with cisplatin. Gp 1, medium control (saline) only; Gp 2, saline followed by cisplatin (2.5 mg/kg) 30 min later; Gp 3, UTL-5g (15 mg/kg) followed by cisplatin 30 min later; Gp 4, UTL-5g (30 mg/kg) followed by cisplatin 30 min later; Gp 5, UTL-5g (60 mg/kg) followed by cisplatin 30 min later. Y axis represents the relative levels of TNF-α assuming 0% for Gp 1 (Control). Level of TNF-α on the figure is based on the average of 2 readings. […]
Using the samples from the same animal study, TNF-α levels in plasma were analyzed. […]

BDF1 mice = test: Cisplatin side-effect time course / MTD, ip daily ×5 (Example 1); assay type: in vivo; conditions: ip daily ×5, BDF1 mice
Method: First, 0.25 mL of 0.2 mg/mL cisplatin (eq to 2.5 mg/kg) in saline was injected ip, daily ×5, in BDF1 mice. Saline was used as a control. Two mice were used per group and sacrificed on day 0 (control), 2, 4, 7, 9, 11, and 15. In addition, 2 BDF1 mice were injected with a higher dose, 0.25 mL of 0.4 mg/mL cisplatin (eq to 5 mg/kg), daily ×5. Unfortunately, for the higher dose, 1 mouse died on day 7 and the second was euthanized on day 14. This confirms the MTD of cisplatin was <5 mg/kg by ip daily ×5 as shown in the MTD study.
To further narrow down the exact day between day 4 and 7, a follow-up animal study was conducted employing cisplatin at 2.5 mg/kg and the mice were sacrificed on day 0 (control), 5, 6, and 7 (2 mice per point).

[3] = ip 30 min before cisplatin 2.5 mg/kg, daily ×5, UTL-5g 15, 30, 60 mg/kg, amifostine 200 mg/kg
[4] = cisplatin 2.5 mg/kg ip daily ×5 or 5 mg/kg single dose
[5] = cisplatin 5 mg/kg ip single dose day 0 (Gp 7) vs Control (Gp 1)

## NCCCNCCSP(=O)(O)O [amifostine, reference compound]
[1]; [3]
  BUN levels, effect of pretreatment: essentially the same reduction
  creatinine, effect of pretreatment: Essentially the same results
  platelet count, effect of pretreatment: statistically significant decrease on platelet count
[1]; ip 30 min before cisplatin 2.5 mg/kg, daily ×5, UTL-5g 15, 30, 60 mg/kg, amifostine 200 mg/kg, listed as Amifostine
  platelet count, effect of pretreatment: does not have similar positive effect on platelet production
[2]; amifostine
  cleared from the plasma, share of the peak concentration: 95%
[2]; metabolite of amifostine
  metabolite cleared from the plasma, share of the peak concentration: 50%
Tumor cells
  tumor-protective effect: may have tumor-protective effect

## N.N.[Cl][Pt][Cl] [cisplatin, cis-dichlorodiammine platinum, reference compound]
[1]; [4]
  ALT levels, effect of cisplatin: elevated by cisplatin
  AST levels, effect of cisplatin: elevated by cisplatin
  BUN levels, effect of cisplatin: elevated by cisplatin in a dose-dependent manner
  creatinine, effect of cisplatin: Essentially the same results
[1]; [5]
  WBC count, effect of cisplatin: lower WBC count as compared to Control
  platelet count, effect of cisplatin: did decrease platelet count significantly
TNF-α
  TNF-α in plasma, effect of cisplatin: elevated by cisplatin
BDF1 mice
  MTD of cisplatin: < 5 mg/kg
